Results as given in US20240351986A1, “UREA COMPOUND CONTAINING 2-HETEROAROMATIC RING SUBSTITUTION, PREPARATION METHOD THEREFOR AND USE THEREOF” (SHANGHAI INSTITUTE OF MATERIA MEDICA, CHINESE ACADEMY OF …, priority 2021, published 2024).

Molecular target: T1, Recombinant human CDK9/cyclin T1 (Homo sapiens, UniProt P50750)
T1 construct: purchased Carna bioscience 04-110
Test: CDK9 enzyme inhibitory activity (ADP-Glo kinase assay)
Type: biochemical
Details: CDK9 enzyme activity, average of two independent repeats; for inhibition at 0.01 µM: read-out: Inhibition rate at different concentrations (%) 10 nM; for inhibition at 0.1 µM: compound 100 nM, read-out: Inhibition rate at different concentrations (%) 100 nM
Procedure: Experimental method: Recombinant human CDK9/cyclin T1 (Carna bioscience, Cat #04-110) was diluted with dilution buffer (20 mM Tris HCl (pH 7.5), 0.02% Triton X-100, 0.01% BSA, 2 mM DTT, 0.5 mM Na3VO4, 10% Glycerol) to […], the substrates CDK7/9 tide (ThermoFisher, Cat #PV5090) and ATP (sigmaaldrich, Cat #A1852) were diluted with assay buffer (25 mM Tris HCl (pH7.5), 10 mM MgCl2, 0.5 mM EGTA (pH 8), 0.5 mM Na3VO4, 5 mMb-glycerol phosphate, 0.1% Triton X-100, 2.5 mM DTT) to final concentrations of 100 μM and […] respectively, aliquot and set aside. 2 μl of diluted recombinant human CDK9/cyclin T1, 1 μl of test compound, and 2 μl of diluted substrate CDK7/9 tide containing ATP were added to the 384-well plate. […] The positive control was the well in which enzyme and substrate were co-incubated, and the negative control was the well in which dilution buffer and substrate were co-incubated. The inhibition rate was calculated according to the following formula.

T1 sequence (P50750 whole entry): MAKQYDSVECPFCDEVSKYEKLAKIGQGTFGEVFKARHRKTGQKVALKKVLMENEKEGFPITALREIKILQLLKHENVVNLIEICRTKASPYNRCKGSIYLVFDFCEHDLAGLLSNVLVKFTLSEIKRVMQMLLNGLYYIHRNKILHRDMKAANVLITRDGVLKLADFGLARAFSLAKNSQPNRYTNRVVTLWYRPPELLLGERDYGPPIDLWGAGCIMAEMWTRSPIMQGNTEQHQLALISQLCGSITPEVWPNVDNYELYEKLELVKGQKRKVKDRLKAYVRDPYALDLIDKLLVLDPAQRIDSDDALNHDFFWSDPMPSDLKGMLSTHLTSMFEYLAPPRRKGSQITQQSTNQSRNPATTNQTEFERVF
T1 sequence (O60563 whole entry partner): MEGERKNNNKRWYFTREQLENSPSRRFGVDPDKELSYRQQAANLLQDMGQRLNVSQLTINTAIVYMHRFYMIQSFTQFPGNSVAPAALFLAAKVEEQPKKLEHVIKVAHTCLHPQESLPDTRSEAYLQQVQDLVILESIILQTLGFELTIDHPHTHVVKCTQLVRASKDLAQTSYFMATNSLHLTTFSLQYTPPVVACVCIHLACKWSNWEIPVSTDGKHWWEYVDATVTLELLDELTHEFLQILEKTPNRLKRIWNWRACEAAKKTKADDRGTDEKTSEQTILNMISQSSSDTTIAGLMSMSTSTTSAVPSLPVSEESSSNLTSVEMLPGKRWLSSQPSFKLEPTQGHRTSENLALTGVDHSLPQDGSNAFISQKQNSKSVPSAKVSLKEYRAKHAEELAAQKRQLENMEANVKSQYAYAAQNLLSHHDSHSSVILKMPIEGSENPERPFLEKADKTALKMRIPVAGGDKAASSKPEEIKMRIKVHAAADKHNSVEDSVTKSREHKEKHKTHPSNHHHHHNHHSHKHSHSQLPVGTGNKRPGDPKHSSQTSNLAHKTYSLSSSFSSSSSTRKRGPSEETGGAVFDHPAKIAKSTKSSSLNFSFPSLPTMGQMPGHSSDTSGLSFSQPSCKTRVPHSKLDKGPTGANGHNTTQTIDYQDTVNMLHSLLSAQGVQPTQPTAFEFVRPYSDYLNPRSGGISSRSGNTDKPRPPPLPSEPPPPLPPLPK

SMILES | inhibition at 0.01 µM (compound 10 nM) | inhibition at 0.1 µM | Inhibition rate at different concentrations (%) 10 nM (compound 10 nM, 0.01 µM)
COc1cc(F)ccc1-c1cc(NC(=O)NC2CCC(NC(C)=O)CC2)ncc1C#N (stereo not drawn) [Example 32, N-((1r,4r)-4-(3-(5-cyano-4-(4-fluoro-2-methoxyphenyl)pyridin-2-yl)ureido)cyclohexyl)acetamide] | 18.1% | 59.8% | –
COc1cc(F)ccc1-c1ccnc(NC(=O)Nc2ccc(F)nc2)c1 [Example 33, 1-(4-(4-fluoro-2-methoxyphenyl)pyridin-2-yl)-3(6-fluoropyridin-3-yl)urea] | 11.9% | 81% | –
COCCNCCCNC(=O)Nc1cc(-c2ccc(F)cc2OC)ccn1 [Example 34, 1-(4-(4-fluoro-2-methoxyphenyl)pyridin-2-yl)-3-(3-((2-methoxyethyl)amino)propyl)urea] | 7% | 54% | –
COc1cc(F)ccc1-c1ccnc(NC(=O)NC2CC(N)C2)c1 (stereo not drawn) [Example 35, 1-((1r,3r)-3-aminocyclobutyl)-3-(4-(4-fluoro-2-methoxyphenyl)pyridin-2-yl)urea] | 30% | 62.7% | –
COc1cc(F)ccc1-c1ccnc(NC(=O)NC2CC(O)C2)c1 (stereo not drawn) [Example 36, 1-(4-(4-fluoro-2-methoxyphenyl)pyridin-2-yl)-3((1r,3r)-3-hydroxycyclobutyl)urea] | 16.5% | 62.8% | –
COc1cc(F)ccc1-c1ccnc(NC(=O)NC2CCCNCC2)c1 (stereo not drawn) [Example 37, 1-(azepan-4-yl)-3-(4-(4-fluoro-2-methoxyphenyl)pyridin-2-yl)urea] | 10% | 60% | –
COc1cc(F)ccc1-c1ccnc(NC(=S)NC2CCC(N)CC2)c1 (stereo not drawn) [Example 38, 1-((1r,4r)-4-aminocyclohexyl)-3-(4-(4-fluoro-2-methoxyphenyl)pyridin-2-yl)thiourea] | 51% | 27% | –
COc1cc(F)ccc1-c1cc(NC(=O)NC2CCC(NC(=O)OC(C)(C)C)CC2)ncn1 (stereo not drawn) [Example 39, tert-butyl ((1r,4r)-4-(3-(6-(4-fluoro-2-methoxyphenyl)pyrimidin-4-yl)ureido)cyclohexyl)carbamate] | 28% | 55% | –
COc1cc(F)ccc1-c1cc(NC(=O)NC2CCC(NC(C)=O)CC2)ncn1 (stereo not drawn) [Example 40, N-((1r,4r)-4-(3-(6-(4-fluoro-2-methoxyphenyl)pyrimidin-4-yl)ureido)cyclohexyl)acetamide] | 25.3% | 59.5% | –
COc1cc(F)ccc1-c1ccnc(NC(=O)NC2CCC(NC(C)=O)CC2)n1 (stereo not drawn) [Example 41, N-((1r,4r)-4-(3-(4-(4-fluoro-2-methoxyphenyl)pyrimidin-2-yl)ureido)cyclohexyl)acetamide] | 38.1% | 70.2% | –
Cc1c(-c2cc(NC(=O)NC3CCC(N)CC3)ncc2Cl)cnn1C (stereo not drawn) [Example 42, 1-((1r,4r)-4-aminocyclohexyl)-3-(5-chloro-4-(1,5-dimethyl-1H-pyrazol-4-yl)pyridin-2-yl)urea] | 44% | 75% | –
CC(=O)NC1CCC(NC(=O)Nc2cc(-c3cnn(C)c3C)c(Cl)cn2)CC1 (stereo not drawn) [Example 43, N-((1r,4r)-4-(3-(5-chloro-4-(1,5-dimethyl-1H-pyrazol-4-yl)pyridin-2-yl)ureido)cyclohexyl)acetamide] | 49% | 87.3% | –
CC1(C)Cc2c(-c3cc(NC(=O)NC4CCC(N)CC4)ncc3Cl)cnn2C1 (stereo not drawn) [Example 44, 1-((1r,4r)-4-aminocyclohexyl)-3-(5-chloro-4-(5,5-dimethyl-5,6-dihydro-4H-pyrrole[1,2-b]pyrazole-3-yl)pyridin-2-yl)urea] | – | 96% | 83.0%
CC1(C)Cc2c(-c3cc(NC(=O)NC4CCC(O)CC4)ncc3Cl)cnn2C1 (stereo not drawn) [Example 45, 1-(5-chloro-4-(5,5-dimethyl-5,6-dihydro-4H-pyrrolo[1,2-b]pyrazol-3-yl)pyridin-2-yl)-3-((1r,4r)-4-hydroxycyclohexyl)urea] | 48.9% | 94.3% | –
CN(C)CC(=O)NC1CCC(NC(=O)Nc2cc(-c3cnn4c3CC(C)(C)C4)c(Cl)cn2)CC1 (stereo not drawn) [Example 48, N-((1r,4r)-4-(3-(5-chloro-4-(5,5-dimethyl-5,6-dihydro-4H-pyrrolo [1,2-b]pyrazol-3-yl)pyridin-2-yl)ureido)cyclohexyl)-2-(dimethylamino)acetamide] | 54% | 74% | –
CC1(C)Cc2c(-c3cc(NC(=O)NC4CCC(NC(=O)C5CC5)CC4)ncc3Cl)cnn2C1 (stereo not drawn) [Example 49] | 58% | 89.2% | –
CC1(C)Cc2c(-c3cc(NC(=O)NC4CCC(NC(=O)C5COC5)CC4)ncc3Cl)cnn2C1 (stereo not drawn) [Example 50, N-((1r,4r)-4-(3-(5-chloro-4-(5,5-dimethyl-5,6-dihydro-4H-pyrrolo[1,2-b]pyrazol-3-yl)pyridin-2-yl)ureido)cyclohexyl) oxetane-3-carboxamide] | 53.2% | 95.1% | –
CC(=O)NC1CCC(NC(=O)Nc2cc(-c3cnn4c3CC(C)(C)C4)c(F)cn2)CC1 (stereo not drawn) [Example 51, N-((1r,4r)-4-(3-(4-(5,5-dimethyl-5,6-dihydro-4H-pyrrolo[1,2-b]pyrazol-3-yl)-5-fluoropyridin-2-yl)ureido)cyclohexyl)acetamide] | 60.2% | 92.8% | –
CC(=O)NC1CCC(NC(=O)Nc2cc(-c3cnn4c3CC(C)(C)C4)c(C)cn2)CC1 (stereo not drawn) [Example 52, N-((1r,4r)-4-(3-(4-(5,5-dimethyl-5,6-dihydro-4H-pyrrolo[1,2-b]pyrazol-3-yl-S-methylpyridin-2-yl)ureido)cyclohexyl)acetamide] | 39.7% | 78.5% | –
CC(=O)NC1CCC(NC(=O)Nc2cc(-c3cnn4c3CC(C)(C)C4)c(C3CC3)cn2)CC1 (stereo not drawn) [Example 53, N-((1r,4r)-4-(3-(4-(5,5-dimethyl-5,6-dihydro-4H-pyrrolo[1,2-b]pyrazol-3-yl)-5-cyclopropylpyridin-2-yl)ureido)cyclohexyl)acetamide] | 40.3% | 59.8% | –
[2H]C([2H])([2H])C(=O)NC1CCC(NC(=O)Nc2cc(-c3cnn4c3CC(C)(C)C4)c(Cl)cn2)CC1 (stereo not drawn) [Example 54, N-((1r,4r)-4-(3-(5-chloro-4-(5,5-dimethyl-5,6-dihydro-4H-pyrrolo[1,2-b]pyrazol-3-yl)pyridin-2-yl)ureido)cyclohexyl)acetamide-2,2,2-d3] | 70.8% | 97.4% | –
COCC(C)NC1CCC(NC(=O)Nc2cc(-c3cnn4c3CC(C)(C)C4)c(Cl)cn2)CC1 (stereo not drawn) [Example 55, 1-(5-chloro-4-(5,5-dimethyl-5,6-dihydro-4H-pyrrolo[1,2-b]pyrazol-3-yl)pyridin-2-yl)-3-((1r,4r)-4-((1-methoxypropan-2-yl)amino)cyclohexyl)urea] | 61.3% | 93.1% | –
CN(C)CCNC1CCC(NC(=O)Nc2cc(-c3cnn4c3CC(C)(C)C4)c(Cl)cn2)CC1 (stereo not drawn) [Example 56, 1-(5-chloro-4-(5,5-dimethyl-5,6-dihydro-4H-pyrrolo[1,2-b]pyrazol-3-yl)pyridin-2-yl)-3-((1r,4r)-4-((2-(dimethylamino)ethyl)amino)cyclohexyl)urea] | 44.9% | 95.2% | –
CC1(C)Cc2c(-c3cc(NC(=O)NC4CCC(NCCOC(F)(F)F)CC4)ncc3Cl)cnn2C1 (stereo not drawn) [Example 57] | 55% | 86.5% | –
